Some test systems named below: UACC-257 melanoma; SK-MEL-5 melanoma; RPMI-8226 leukemia; A549 NSCLC; K-562 leukemia; A498 renal; HCT-116 colon; HCT-15 colon; NCI-H226 lung.
Test in all cases: DTP human tumour cell line panel, 48 h

The source of these data is PubChem BioAssay (NCI).

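Exposure lasted 48 hours, with cells grown in 96-well plates and compounds tested at five concentrations. GI50 is the concentration that inhibits growth by half. TGI: total growth inhibition.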

One may read the TGI as the concentration at which net growth stops. The low end stands for greater sensitivity of the cells, the high end for lower sensitivity of the cells. The term GI50 denotes the concentration at which growth is held to half of that of the control.

For the compound `CSc1cnc2ccccc2c1Sc1c[nH]c2ccccc2c1=O`, the TGI with UACC-257 melanoma was 48 µM; in the test on SK-MEL-5 melanoma it was 26.6 µM; with RPMI-8226 leukemia it was 64.4 µM; with A549 NSCLC, 24.8 µM; in the test with K-562 leukemia it was over 58.1 µM; in the test with A498 renal, 47.4 µM. In addition, the TGI is 28.7 µM with HCT-116 colon, over 80.8 µM with HCT-15 colon and 33 µM in the test with NCI-H226 lung.

In the case of `CC1=C(C(=O)Nc2ccccc2)C(c2ccccc2Cl)C(C(=O)Nc2ccccc2)=C(C)N1`, the TGI was 38.5 µM in the test on UACC-257 melanoma; 29.8 µM in the test with SK-MEL-5 melanoma; 46.9 µM in the test with RPMI-8226 leukemia; over 100 µM in the test with A549 NSCLC; 93.5 µM with K-562 leukemia; 58.5 µM with A498 renal. Further, the figures for the TGI with HCT-116 colon, in the test with HCT-15 colon and in the test with NCI-H226 lung were 47.6 µM, 38.5 µM and 59 µM, respectively.

With `O=C(O)CCNS(=O)(=O)c1ccc2ccccc2c1`, the TGI in the test on UACC-257 melanoma, in the test on SK-MEL-5 melanoma, in the test with RPMI-8226 leukemia, in the test with A549 NSCLC, in the test with K-562 leukemia and with A498 renal was over 100 µM in each case. Also, the TGI in the test with HCT-15 colon and in the test on NCI-H226 lung was over 100 µM each time.

For `CC1=C(SC#N)S(=O)(=O)N(c2ccccc2)C(C)=C1SC#N`, the TGI in the test with UACC-257 melanoma was over 100 µM; in the test on SK-MEL-5 melanoma it was over 100 µM; in the test with RPMI-8226 leukemia, over 100 µM; in the test on A549 NSCLC, over 100 µM; with K-562 leukemia, 66 µM; with A498 renal it was 92.1 µM. In addition, the TGI with HCT-116 colon was 69.8 µM; in the test on HCT-15 colon, over 100 µM; with NCI-H226 lung it was 81.6 µM.

On to `COc1ccc(C2=Nc3ccccc3SC(C)C2)cc1OC` (stereo not drawn), for which the TGI in the test on UACC-257 melanoma turned out to be 49.6 µM; in the test on SK-MEL-5 melanoma it was 37 µM; with RPMI-8226 leukemia it was 38.4 µM; with K-562 leukemia, 56.6 µM; in the test with A498 renal it was 39.8 µM; in the test on HCT-116 colon, 32.1 µM. Besides, the TGI in the test with HCT-15 colon worked out at 31.9 µM; in the test with NCI-H226 lung, 36.6 µM.

For the compound `CCOC(=O)C1=C(O)c2ccc(C)cc2C(=O)C1=O`, the TGI with UACC-257 melanoma, with SK-MEL-5 melanoma, with RPMI-8226 leukemia, in the test on A549 NSCLC, in the test on K-562 leukemia and in the test with A498 renal was over 100 µM in each case. The TGI in the test with HCT-116 colon, in the test with HCT-15 colon and in the test with NCI-H226 lung was over 100 µM each time.

With `O=C(C(=O)n1ncc(Cl)c(Cl)c1=O)n1ncc(Cl)c(Cl)c1=O`, the TGI is 35.7 µM in the test with UACC-257 melanoma; 97.2 µM in the test with SK-MEL-5 melanoma; 26.8 µM in the test on RPMI-8226 leukemia; over 100 µM with A549 NSCLC; over 100 µM with K-562 leukemia; over 100 µM with A498 renal. The TGI in the test with HCT-116 colon is 29.5 µM; in the test on HCT-15 colon, 46.5 µM; in the test on NCI-H226 lung, over 100 µM.

Regarding `Cc1ccc(-c2nc(/C=N/Nc3cc(C)nc4ccc(Cl)cc34)c(C)o2)cc1`, the GI50 is 1.71 µM in the test on UACC-257 melanoma; 1.76 µM in the test on SK-MEL-5 melanoma; 1.69 µM with RPMI-8226 leukemia; 1.83 µM in the test on A549 NSCLC; 1.61 µM with A498 renal; 1.79 µM with HCT-116 colon. The GI50 is 0.549 µM in the test on HCT-15 colon and 1.84 µM with NCI-H226 lung. For the same compound, the TGI in the test on UACC-257 melanoma amounted to 3.31 µM; with SK-MEL-5 melanoma, 3.15 µM; in the test on RPMI-8226 leukemia, 4.2 µM; with A549 NSCLC, 3.77 µM; in the test with A498 renal, 3.77 µM; in the test with HCT-116 colon, 3.23 µM. Moreover, the TGI in the test on HCT-15 colon amounted to 2.08 µM; in the test with NCI-H226 lung it was 3.72 µM.

Turning to `Cc1cccc(C(=O)O)c1C(=O)c1cccc2ccccc12`, the TGI in the test on UACC-257 melanoma, in the test on SK-MEL-5 melanoma, in the test on A549 NSCLC, with K-562 leukemia, in the test with A498 renal and in the test on HCT-116 colon was over 100 µM throughout. Further, the TGI with HCT-15 colon and in the test on NCI-H226 lung was over 100 µM in each case.

Turning to `COCCOc1cc(C)cc(/C=C(C)/C=C/C2=C(C)CCCC2(C)C)n1`, the TGI in the test with UACC-257 melanoma was over 100 µM; with SK-MEL-5 melanoma it was 39.8 µM; in the test with RPMI-8226 leukemia, 52.3 µM; with A549 NSCLC it was over 100 µM; in the test on A498 renal it was over 100 µM; in the test with HCT-116 colon, over 100 µM. Besides, the TGI in the test with NCI-H226 lung is over 100 µM.

In the case of `CCOC(=O)C(Cc1ccc(N(CCCl)CCCl)cc1)NC(=O)C(Cc1ccccc1)NC=O` (stereo not drawn), the TGI in the test with UACC-257 melanoma came to 0.54 µM; in the test on SK-MEL-5 melanoma, 0.355 µM; in the test on RPMI-8226 leukemia, 0.355 µM; with A549 NSCLC, 0.727 µM; with K-562 leukemia, 0.365 µM; in the test on A498 renal, 0.384 µM. Also, the TGI in the test with HCT-116 colon turned out to be 0.535 µM; with HCT-15 colon, 0.602 µM.

Consider `COC1CC(O)C(OC(=O)c2ccccc2)C(C)O1` (stereo not drawn), for which the TGI in the test with SK-MEL-5 melanoma, in the test on RPMI-8226 leukemia, in the test on A549 NSCLC, in the test with K-562 leukemia, in the test with A498 renal and in the test with HCT-116 colon was over 100 µM in each case. For the same compound, the TGI in the test with HCT-15 colon and in the test on NCI-H226 lung was over 100 µM throughout.
